# Laboratory results taken from patent US9376429B2, “Sodium channel blockers, preparation method thereof and use thereof” (Daewoong Pharmaceutical Co., Ltd., priority 2012, dated 2016).
# Molecular target: T1, sodium ion channel (Nav1.7) (Homo sapiens, UniProt Q15858)
# T1 construct: host or cells: HEK293
# Assay: Blocking effect against sodium ion channel (Nav1.7), IonFlux16 auto patch clamp, hNav1.7 HEK293 cells
# Assay type: cell-based
# Settings: peak current after 50 seconds treatment, eight concentrations
# Method: In order to measure the activities of the inventive compounds as antagonists, an experiment on a blocking effect against the sodium ion channel (Nav1.7) was carried out as follows.
# The hNav1.7 HEK293 cell line used was a cell line having a human sodium ion channel 1.7 gene (type IX voltage-gated sodium channel alpha subunit) in human embryonic kidney (HEK) 293 cells and was purchased from Millipore. The medium used was prepared by adding 1% 100×NEAA and 10% heat inactivated FBS to DMEM F-12 and adding 1% P/S as an antibiotic thereto. G-418 as a […] was added during subculture, and the hNav1.7 HEK293 cells were cultured to a confluence of about 80% in a T75 flask in a 5% CO2 incubator at 37° C. for 2 or 3 days and detached from the flask by treatment with 0.25% trypsin solution. Then, the cells were collected by centrifugation and used in the experiment.
# The compounds prepared in the Examples of the present invention were dissolved in dimethyl sulfoxide (DMSO) and used in the experiment. 90 mM and 10 mM DMSO stock solutions were prepared from each of the compounds and diluted in an extracellular solution (4 mM KCl, 138 mM NaCl, 1 mM MgCl2, 1.8 mM CaCl2, 5.6 mM glucose, 10 mM HEPES, pH 7.45) at various concentrations so that the final concentration of each compound in DMSO was 0.3% or less.
# To measure the sodium ion channel blocking effect, an IonFlux16 Auto patch clamp system (Fluxion, Inc.) and a plate for exclusive use were used. The cells were distributed in an extracellular solution (4 mM KCl, 138 mM NaCl, 1 mM MgCl2, 1.8 mM CaCl2, 5.6 mM glucose, 10 mM HEPES, pH 7.45), and then dispensed in the specified region of the plate, and each of the prepared compound samples was diluted at various concentrations, and then dispensed in the specified region of the plate.
# Specifically, eight concentrations per compound were set, and percent inhibition was determined by calculating the percentage of inhibition of the peak current, generated after treating the cells with each concentration of the compound for 50 seconds, relative to the peak current generated before treatment with the compound, and the IC50 value was calculated using the Sigma plot program. In Table 2 below, the percent inhibition of Nav1.7 is rated as follows: […]
# T1 sequence (Q15858 whole entry): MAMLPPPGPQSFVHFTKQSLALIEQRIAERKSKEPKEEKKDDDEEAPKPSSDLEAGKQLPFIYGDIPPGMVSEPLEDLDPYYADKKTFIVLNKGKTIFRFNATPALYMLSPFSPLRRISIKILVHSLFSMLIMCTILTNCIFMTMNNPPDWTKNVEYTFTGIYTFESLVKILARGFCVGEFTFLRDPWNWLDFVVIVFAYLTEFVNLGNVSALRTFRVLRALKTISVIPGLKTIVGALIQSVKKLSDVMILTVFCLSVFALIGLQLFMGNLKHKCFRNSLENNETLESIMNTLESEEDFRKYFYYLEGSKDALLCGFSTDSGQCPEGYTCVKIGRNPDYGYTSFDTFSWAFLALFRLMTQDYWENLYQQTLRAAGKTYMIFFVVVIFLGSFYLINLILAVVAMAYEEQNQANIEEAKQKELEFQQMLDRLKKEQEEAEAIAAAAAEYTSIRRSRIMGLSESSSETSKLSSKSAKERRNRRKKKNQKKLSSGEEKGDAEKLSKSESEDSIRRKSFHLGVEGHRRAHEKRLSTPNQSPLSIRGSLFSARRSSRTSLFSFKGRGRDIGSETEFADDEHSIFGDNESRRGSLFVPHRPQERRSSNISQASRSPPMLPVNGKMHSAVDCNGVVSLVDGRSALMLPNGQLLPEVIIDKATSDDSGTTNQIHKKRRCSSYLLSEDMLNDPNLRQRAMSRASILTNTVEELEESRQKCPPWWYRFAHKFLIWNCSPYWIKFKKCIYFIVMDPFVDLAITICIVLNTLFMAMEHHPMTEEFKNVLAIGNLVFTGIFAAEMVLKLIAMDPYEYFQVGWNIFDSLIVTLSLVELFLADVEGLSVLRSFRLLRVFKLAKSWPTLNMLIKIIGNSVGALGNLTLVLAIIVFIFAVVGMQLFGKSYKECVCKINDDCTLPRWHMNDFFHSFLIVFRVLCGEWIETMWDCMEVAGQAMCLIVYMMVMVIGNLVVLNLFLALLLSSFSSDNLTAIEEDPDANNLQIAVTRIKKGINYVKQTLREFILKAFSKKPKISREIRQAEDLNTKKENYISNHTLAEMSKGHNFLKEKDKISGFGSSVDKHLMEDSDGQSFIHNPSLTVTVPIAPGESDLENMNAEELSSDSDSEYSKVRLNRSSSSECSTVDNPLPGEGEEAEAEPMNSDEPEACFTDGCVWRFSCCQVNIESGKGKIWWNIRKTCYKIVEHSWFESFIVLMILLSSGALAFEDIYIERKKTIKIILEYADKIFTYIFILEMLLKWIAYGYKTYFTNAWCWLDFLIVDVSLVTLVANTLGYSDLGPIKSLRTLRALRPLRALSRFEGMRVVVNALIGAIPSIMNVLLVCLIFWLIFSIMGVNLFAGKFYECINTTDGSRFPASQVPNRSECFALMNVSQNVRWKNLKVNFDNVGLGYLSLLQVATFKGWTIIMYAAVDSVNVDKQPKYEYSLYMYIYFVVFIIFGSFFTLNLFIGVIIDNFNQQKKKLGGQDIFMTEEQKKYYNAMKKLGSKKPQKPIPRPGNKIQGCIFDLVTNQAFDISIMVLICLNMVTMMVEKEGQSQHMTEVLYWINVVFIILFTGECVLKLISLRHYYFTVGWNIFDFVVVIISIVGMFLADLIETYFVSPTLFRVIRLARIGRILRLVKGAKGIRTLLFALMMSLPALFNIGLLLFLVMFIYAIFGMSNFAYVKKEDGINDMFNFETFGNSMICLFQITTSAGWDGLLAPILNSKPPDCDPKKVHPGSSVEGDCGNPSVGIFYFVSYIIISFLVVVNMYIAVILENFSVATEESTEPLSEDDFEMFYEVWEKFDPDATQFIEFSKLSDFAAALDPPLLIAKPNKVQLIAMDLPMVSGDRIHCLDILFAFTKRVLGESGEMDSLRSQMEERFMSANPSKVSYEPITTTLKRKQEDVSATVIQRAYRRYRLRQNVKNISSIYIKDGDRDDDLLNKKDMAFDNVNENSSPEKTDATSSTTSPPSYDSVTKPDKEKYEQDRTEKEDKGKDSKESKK
row,IC50 [µM],Compound
1,> 0.1,"Cn1nccc1-c1cc(-c2ccnc(F)c2)ncc1Oc1ccc(S(=O)(=O)Nc2nccs2)cc1C#N [Example 27, 3-cyano-4-((2′-fluoro-4-(1-methyl-1H-pyrazol-5-yl)-[2,4′-bipyridin]-5-yl)oxy)-N-(thiazol-2-yl)benzenesulfonamide]"
2,> 0.1,"O=S(=O)(Nc1nccs1)c1ccc(Oc2cnc(-c3ccoc3)cc2-c2ccoc2)cc1 [Example 28, 4-((4,6-di(furan-3-yl)pyridin-3-yl)oxy)-N-(thiazol-2-yl)benzenesulfonamide]"
3,> 0.1,"N#Cc1cc(S(=O)(=O)Nc2nccs2)ccc1Oc1cnc(-c2ccccc2)cc1-c1cccnc1F [Example 29, 3-cyano-4-((2-fluoro-6′-phenyl-[3,4′-bipyridin]-3′-yl)oxy)-N-(thiazol-2-yl)benzenesulfonamide]"
4,> 0.1,"N#Cc1cc(S(=O)(=O)Nc2nccs2)ccc1Oc1cnc(-c2ccccc2)cc1-c1ccc(F)nc1 [Example 30, 3-cyano-4-((6-fluoro-6′-phenyl-[3,4′-bipyridin]-3′-yl)oxy)-N-(thiazol-2-yl)benzenesulfonamide]"
5,0.051 to 0.1,"N#Cc1cc(S(=O)(=O)Nc2nccs2)ccc1Oc1cnc(-c2ccccc2)cc1-c1ccnc(F)c1 [Example 31, 3-cyano-4-((2′-fluoro-6-phenyl-[4,4′-bipyridin]-3-yl)oxy)-N-(thiazol-2-yl)benzenesulfonamide]"
6,> 0.1,"Cc1cc(-c2cc(-c3ccccc3)ncc2Oc2ccc(S(=O)(=O)Nc3nccs3)cc2C#N)cnc1F [Example 32, 3-cyano-4-((6-fluoro-5-methyl-6′-phenyl-[3,4′-bipyridin]-3′-yl)oxy)-N-(thiazol-2-yl)benzenesulfonamide]"
7,> 0.1,"N#Cc1cc(S(=O)(=O)Nc2nccs2)ccc1Oc1cnc(-c2ccccc2)cc1-c1cccnc1 [Example 33, 3-cyano-4-((6′-phenyl-[3,4′-bipyridin]-3′-yl)oxy)-N-(thiazol-2-yl)benzenesulfonamide]"
8,> 0.1,"N#Cc1cc(S(=O)(=O)Nc2nccs2)ccc1Oc1cnc(-c2ccccc2)cc1-c1cncnc1 [Example 34, 3-cyano-4-((6-phenyl-4-(pyrimidin-5-yl)pyridin-3-yl)oxy)-N-(thiazol-2-yl)benzenesulfonamide]"
9,> 0.1,"N#Cc1cc(S(=O)(=O)Nc2nccs2)ccc1Oc1cnc(-c2ccccc2)cc1-c1ccncc1Cl [Example 35, 4-((3′-chloro-6-phenyl-[4,4′-bipyridin]-3-yl)oxy)-3-cyano-N-(thiazol-2-yl)benzenesulfonamide]"
10,> 0.1,"N#Cc1cc(S(=O)(=O)Nc2nccs2)ccc1Oc1cnc(-c2ccccc2)cc1-c1ccnc(Cl)c1Cl [Example 36, 3-cyano-4-((2′,3′-dichloro-6-phenyl-[4,4′-bipyridin]-3-yl)oxy)-N-(thiazol-2-yl)benzenesulfonamide]"
11,> 0.1,"Cc1noc(C)c1-c1cc(-c2ccccc2)ncc1Oc1ccc(S(=O)(=O)Nc2nccs2)cc1C#N [Example 37, 3-cyano-4-((4-(3,5-dimethylisoxazol-4-yl)-6-phenylpyridin-3-yl)oxy)-N-(thiazol-2-yl)benzenesulfonamide]"
12,> 0.1,"Cn1cc(-c2cc(-c3ccccc3)ncc2Oc2ccc(S(=O)(=O)Nc3nccs3)cc2C#N)cn1 [Example 38, 3-cyano-4-((4-(1-methyl-1H-pyrazol-4-yl)-6-phenylpyridin-3-yl)oxy)-N-(thiazol-2-yl)benzenesulfonamide]"
13,0.051 to 0.1,"N#Cc1cc(S(=O)(=O)Nc2nccs2)ccc1Oc1cnc(-c2ccccc2)cc1-c1cn[nH]c1 [Example 39, 3-cyano-4-((6-phenyl-4-(1H-pyrazol-4-yl)pyridin-3-yl)oxy)-N-(thiazol-2-yl)benzenesulfonamide]"
14,> 0.1,"N#Cc1cc(S(=O)(=O)Nc2nccs2)ccc1Oc1cnc(-c2ccccc2)cc1-c1ccncc1 [Example 40, 3-cyano-4-((6-phenyl-[4,4′-bipyridin]-3-yl)oxy)-N-(thiazol-2-yl)benzenesulfonamide]"
15,> 0.1,"Cc1cc(-c2cc(-c3ccccc3)ncc2Oc2ccc(S(=O)(=O)Nc3nccs3)cc2C#N)c(C)s1 [Example 41, 3-cyano-4-((4-(2,5-dimethylthiophen-3-yl)-6-phenylpyridin-3-yl)oxy)-N-(thiazol-2-yl)benzenesulfonamide]"
16,> 0.1,"Cc1ccc(-c2cc(-c3ccccc3)ncc2Oc2ccc(S(=O)(=O)Nc3nccs3)cc2C#N)s1 [Example 42, 3-cyano-4-((4-(5-methylthiophen-2-yl)-6-phenylpyridin-3-yl)oxy)-N-(thiazol-2-yl)benzenesulfonamide]"
17,> 0.1,"N#Cc1cc(S(=O)(=O)Nc2nccs2)ccc1Oc1cnc(-c2ccccc2)cc1-c1csc(C2CC2)n1 [Example 43, 3-cyano-4-((4-(2-cyclopropylthiazol-4-yl)-6-phenylpyridin-3-yl)oxy)-N-(thiazol-2-yl)benzenesulfonamide]"
18,> 0.1,"N#Cc1cc(S(=O)(=O)Nc2nccs2)ccc1Oc1cnc(-c2ccccc2)cc1-c1cnn(C2CC2)c1 [Example 44, 3-cyano-4-((4-(1-cyclopropyl-1H-pyrazol-4-yl)-6-phenylpyridin-3-yl)oxy)-N-(thiazol-2-yl)benzenesulfonamide]"
19,> 0.1,"N#Cc1cc(S(=O)(=O)Nc2nccs2)ccc1Oc1cnc(-c2cn[nH]c2)cc1-c1ccoc1 [Example 45, 3-cyano-4-((4-(furan-3-yl)-6-(1H-pyrazol-4-yl)pyridin-3-yl)oxy)-N-(thiazol-2-yl)benzenesulfonamide]"
20,> 0.1,"Cn1cc(-c2cc(-c3ccoc3)c(Oc3ccc(S(=O)(=O)Nc4nccs4)cc3C#N)cn2)cn1 [Example 46, 3-cyano-4-((4-(furan-3-yl)-6-(1-methyl-1H-pyrazol-4-yl)pyridin-3-yl)oxy)-N-(thiazol-2-yl)benzenesulfonamide]"
21,> 0.1,"O=S(=O)(Nc1nccs1)c1ccc(Oc2cnc(-c3cccnc3F)cc2-c2ccoc2)c(F)c1 [Example 47, 3-fluoro-4-((2′-fluoro-4-(furan-3-yl)-[2,3′-bipyridin]-5-yl)oxy)-N-(thiazol-2-yl)benzenesulfonamide]"
22,> 0.1,"O=S(=O)(Nc1nccs1)c1ccc(Oc2cnc(-c3ccc(F)nc3)cc2-c2ccoc2)c(F)c1 [Example 48, 3-fluoro-4-((6′-fluoro-4-(furan-3-yl)-[2,3′-bipyridin]-5-yl)oxy)-N-(thiazol-2-yl)benzenesulfonamide]"
23,> 0.1,"N#Cc1cc(S(=O)(=O)Nc2nccs2)ccc1Oc1cnc(-c2ccc(F)nc2)cc1-c1cccnc1 [Example 49, 3-cyano-4-((6-fluoro-[3,2′:4′,3″-terpyridin]-5′-yl)oxy)-N-(thiazol-2-yl)benzenesulfonamide]"
24,< 0.05,"N#Cc1cc(S(=O)(=O)Nc2nccs2)ccc1Oc1cnc(-c2cccc(F)c2)cc1-c1cccnc1 [Example 50, 3-cyano-4-((6′-(3-fluorophenyl)-[3,4′-bipyridin]-3′-yl)oxy)-N-(thiazol-2-yl)benzenesulfonamide]"
25,> 0.1,"N#Cc1cc(S(=O)(=O)Nc2nccs2)ccc1Oc1cnc(-c2cccnc2F)cc1-c1cccnc1 [Example 51, 3-cyano-4-((2-fluoro-[3,2′:4′,3″-terpyridin]-5′-yl)oxy)-N-(thiazol-2-yl)benzenesulfonamide]"
26,> 0.1,"N#Cc1cc(S(=O)(=O)Nc2nccs2)ccc1Oc1cnc(-c2ccccc2F)cc1-c1cccnc1 [Example 52, 3-cyano-4-((6′-(2-fluorophenyl)-[3,4′-bipyridin]-3′-yl)oxy)-N-(thiazol-2-yl)benzenesulfonamide]"
27,> 0.1,"N#Cc1cc(S(=O)(=O)Nc2nccs2)ccc1Oc1cnc(-c2ccc(F)nc2F)cc1-c1ccncc1 [Example 53, 3-cyano-4-((2,6-difluoro-[3,2′:4′,4″-terpyridin]-5′-yl)oxy)-N-(thiazol-2-yl)benzenesulfonamide]"
28,> 0.1,"Cn1cc(-c2cc(-c3cnn(C)c3)c(Oc3ccc(S(=O)(=O)Nc4nccs4)cc3C#N)cn2)cn1 [Example 54, 4-((4,6-bis(1-methyl-1H-pyrazol-4-yl)pyridin-3-yl)oxy)-3-cyano-N-(thiazol-2-yl)benzenesulfonamide]"
29,> 0.1,"Cn1cc(-c2cc(-c3cnn(C)c3)c(Oc3ccc(S(=O)(=O)Nc4ncns4)cc3C#N)cn2)cn1 [Example 55, 4-((4,6-bis(1-methyl-1H-pyrazol-4-yl)pyridin-3-yl)oxy)-3-cyano-N-(1,2,4-thiadiazol-5-yl)benzenesulfonamide]"
30,> 0.1,"O=S(=O)(Nc1cscn1)c1cc(Cl)c(Oc2cnc(-c3cccnc3F)cc2-c2ccoc2)cc1F [Example 56, 5-chloro-2-fluoro-4-((2′-fluoro-4-(furan-3-yl)-[2,3′-bipyridin]-5-yl)oxy)-N-(thiazol-4-yl)benzenesulfonamide]"
